According to the NIST ThermoML archive (doi:10.1016/j.jct.2017.09.012):
Numbers after ± are expanded uncertainties.

Test: osmotic coefficient (dimensionless); mn = molality of the nth substance listed, in mol/kg
Settings: 101 kPa, Liquid, isopiestic method

O=S(=O)([O-])[O-].[Zn+2] [zinc sulfate] + O
Settings	osmotic coefficient
288.15 K, m1 = 3.567	1.09 ± 0.03
288.15 K, m1 = 3.787	1.19 ± 0.033
288.15 K, m1 = 3.997	1.29 ± 0.03
298.15 K, m1 = 3.223	0.935 ± 0.009
298.15 K, m1 = 3.836	1.16 ± 0.013
308.15 K, m1 = 3.614	1.019 ± 0.005
308.15 K, m1 = 3.962	1.144 ± 0.009
308.15 K, m1 = 4.295	1.27 ± 0.015
313.15 K, m1 = 4.014	1.133 ± 0.007
313.15 K, m1 = 4.25	1.217 ± 0.009
313.15 K, m1 = 4.47	1.302 ± 0.013
